Assays:
[1] = in vivo; cited from earlier work
[2] = target: human V2 receptor (h V2R) (Homo sapiens (Human), UniProt P30518); test: hV2 receptor agonist transcriptional reporter gene (luciferase) assay; format: cell-based; conditions: HEK-293 cells transiently transfected with hV2 receptor, dDAVP internal control

% Efficacy hV2-R [2] | Substance | route of clearance from the body [1]
 | [1-deamino, 8-D-arginine]-vasopressin [Compound 42] | cleared from the body primarily by the kidneys
89% | [Val4]dDAVP [Compound 43] | 
